# Measured values reported in patent US9260425B2 (Genetech, Inc., priority 2011, dated 2016).
# Target: Pim-1 (Homo sapiens (Human), UniProt P11309)
# Assay: Pim kinase binding activity assay (Example 901), PIM-1 enzyme, Caliper microfluidic peptide phosphorylation
# Assay type: biochemical
# Conditions: 20 pM PIM-1, 10 μM ATP, 1 μM FAM-peptide, 90 minutes at room temperature
# Method in brief: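 The readout was microfluidic mobility-shift separation of a FAM-tagged Pim-specific peptide, excited at 488 nm and read at 530 nm, with Ki calculated from percent conversion. Reactions held 20 pM PIM-1, 1 μM peptide and 10 μM ATP in pH 7.2 HEPES/MgCl2/DTT buffer, ran 90 min at room temperature and were stopped with EDTA.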
# Sequence of Pim-1 (P11309 whole entry): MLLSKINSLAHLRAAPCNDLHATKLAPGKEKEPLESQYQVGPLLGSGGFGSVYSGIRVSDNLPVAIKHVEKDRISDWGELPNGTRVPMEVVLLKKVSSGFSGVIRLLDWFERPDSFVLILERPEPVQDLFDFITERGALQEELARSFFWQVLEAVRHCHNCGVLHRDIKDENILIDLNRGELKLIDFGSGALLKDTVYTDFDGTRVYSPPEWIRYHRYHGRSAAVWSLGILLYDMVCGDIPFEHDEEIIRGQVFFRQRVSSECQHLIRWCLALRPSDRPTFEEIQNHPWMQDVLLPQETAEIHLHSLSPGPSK
row,Compound,Ki
1,"CCn1cc(-c2cc3c(-c4cccc(N5CCNCC(F)C5)n4)n[nH]c3cn2)cn1 (centres unmarked) [Example 504, 5-(1-ethyl-1H-pyrazol-4-yl)-3-(6-(6-fluoro-1,4-diazepan-1-yl)pyridin-2-yl)-1H-pyrazolo[3,4-c]pyridine]",0.076 nM
2,"N[C@@H]1CN(c2cccc(-c3n[nH]c4cnc(-c5cccnc5)cc34)n2)CC[C@H]1F (relative stereo) [Example 453, trans-4-fluoro-1-(6-(5-(pyridin-3-yl)-1H-pyrazolo[3,4-c]pyridin-3-yl)pyridin-2-yl)piperidin-3-amine]",0.296 nM
3,"Cn1cc(-c2cc3c(-c4ccc(Br)c(N5CC(N6CCS(=O)(=O)CC6)C5)n4)n[nH]c3cn2)cn1 [Example 387, 4-(1-(3-bromo-6-(5-(1-methyl-1H-pyrazol-4-yl)-1H-pyrazolo[3,4-c]pyridin-3-yl)pyridin-2-yl)azetidin-3-yl)-1,1-dioxothiomorpholine]",1.59 nM
4,"C=Cc1ccc(-c2n[nH]c3cnc(-c4cnn(CC)c4)cc23)nc1N1CCC[C@H](N)C1 [Example 431, (S)-1-(6-(5-(1-ethyl-1H-pyrazol-4-yl)-1H-pyrazolo[3,4-c]pyridin-3-yl)-3-vinylpyridin-2-yl)piperidin-3-amine]",0.023 nM
5,"O=C(NC1CNC1)c1cccc(-c2n[nH]c3cnc(-c4cccnc4)cc23)n1 [Example 329, N-(azetidin-3-yl)-6-(5-(pyridin-3-yl)-1H-pyrazolo[3,4-c]pyridin-3-yl)picolinamide]",16.5 nM
6,"NCCC1CCN(c2cccc(-c3n[nH]c4cnc(-c5cccnc5)cc34)n2)C1 (centres unmarked) [Example 333, 2-(1-(6-(5-(pyridin-3-yl)-1H-pyrazolo[3,4-c]pyridin-3-yl)pyridin-2-yl)pyrrolidin-3-yl)ethanamine]",0.13 nM
7,"c1ccc(-c2n[nH]c3cnc(-c4cncs4)cc23)cc1 [Example 323, 5-(3-phenyl-1H-pyrazolo[3,4-c]pyridin-5-yl)thiazole]",33 nM
8,"Cc1ccc(-c2n[nH]c3cnc(-c4cnn(C)c4)cc23)nc1N1CCC[C@H](N)C1 [Example 433, (S)-1-(3-methyl-6-(5-(1-methyl-1H-pyrazol-4-yl)-1H-pyrazolo[3,4-c]pyridin-3-yl)pyridin-2-yl)piperidin-3-amine]",0.013 nM
9,"O=c1cccc(-c2n[nH]c3cnc(-c4cccnc4)cc23)[nH]1 [Example 132, 6-(5-(pyridin-3-yl)-1H-pyrazolo[3,4-c]pyridin-3-yl)pyridin-2(1H)-one]",130 nM
10,"c1ccc(-c2n[nH]c3cnc(-c4cn[nH]c4)cc23)cc1 [Example 137, 3-phenyl-5-(1H-pyrazol-4-yl)-1H-pyrazolo[3,4-c]pyridine]",4.61 nM
11,"NC[C@@H]1CCN(c2ccncc2-c2cc3c(-c4ccccc4F)n[nH]c3cn2)C1 [Example 130, (S)-(1-(3-(3-(2-fluorophenyl)-1H-pyrazolo[3,4-c]pyridin-5-yl)pyridin-4-yl)pyrrolidin-3-yl)methanamine]",1500 nM
12,"Cn1cc(-c2cc3c(-c4ccc(Br)c(N5CCC[C@H](O)C5)n4)n[nH]c3cn2)cn1 [Example 393, (S)-1-(3-bromo-6-(5-(1-methyl-1H-pyrazol-4-yl)-1H-pyrazolo[3,4-c]pyridin-3-yl)pyridin-2-yl)piperidin-3-ol]",0.333 nM
13,"CCn1cc(-c2cc3c(-c4cccc(N5CCCC[C@H](O)C5)n4)n[nH]c3cn2)cn1 [Example 501, (S)-1-(6-(5-(1-ethyl-1H-pyrazol-4-yl)-1H-pyrazolo[3,4-c]pyridin-3-yl)pyridin-2-yl)azepan-3-ol]",0.103 nM
14,"NC(=O)c1ccnc(-c2n[nH]c3cnc(-c4cccnc4)cc23)c1 [Example 302, 2-(5-(pyridin-3-yl)-1H-pyrazolo[3,4-c]pyridin-3-yl)isonicotinamide]",6 nM
15,"Cn1cc(-c2cc3c(-c4cnn(CC(C)(C)O)c4)n[nH]c3cn2)cn1 [Example 250, 2-methyl-1-(4-(5-(1-methyl-1H-pyrazol-4-yl)-1H-pyrazolo[3,4-c]pyridin-3-yl)-1H-pyrazol-1-yl)propan-2-ol]",0.389 nM
16,"N[C@@H]1CCC[C@H](Nc2cccc(-c3n[nH]c4cnc(-c5cccnc5)cc34)n2)C1 [Example 341, (1S,3R)-N1-(6-(5-(pyridin-3-yl)-1H-pyrazolo[3,4-c]pyridin-3-yl)pyridin-2-yl)cyclohexane-1,3-diamine]",0.077 nM
17,"C=C(C)c1ccc(-c2n[nH]c3cnc(-c4cnn(CC)c4)cc23)nc1N1CCC[C@H](N)C1 [Example 427, (S)-1-(6-(5-(1-ethyl-1H-pyrazol-4-yl)-1H-pyrazolo[3,4-c]pyridin-3-yl)-3-(prop-1-en-2-yl)pyridin-2-yl)piperidin-3-amine]",0.016 nM
18,"CCn1cc(-c2cc3c(-c4cc(C)cc(N5CCCNCC5)n4)n[nH]c3cn2)cn1 [Example 457, 3-(6-(1,4-diazepan-1-yl)-4-methylpyridin-2-yl)-5-(1-ethyl-1H-pyrazol-4-yl)-1H-pyrazolo[3,4-c]pyridine]",0.049 nM
19,"N#CCc1n[nH]c2cnc(-c3cn[nH]c3)cc12 [Example 145, 2-(5-(1H-pyrazol-4-yl)-1H-pyrazolo[3,4-c]pyridin-3-yl)acetonitrile]",324 nM

row,Compound,Ki
1,"C[C@@H]1CN(c2cccc(-c3n[nH]c4cnc(-c5cnn(CCF)c5)cc34)n2)CCN1 [Example 521, (R)-5-(1-(2-fluoroethyl)-1H-pyrazol-4-yl)-3-(6-(3-methylpiperazin-1-yl)pyridin-2-yl)-1H-pyrazolo[3,4-c]pyridine]",0.026 nM
2,"c1cncc(-c2cc3c(-c4ccn(C5CCNCC5)n4)n[nH]c3cn2)c1 [Example 215, 3-(1-(piperidin-4-yl)-1H-pyrazol-3-yl)-5-(pyridin-3-yl)-1H-pyrazolo[3,4-c]pyridine]",0.313 nM
3,"C1=C(c2n[nH]c3cnc(-c4cccnc4)cc23)CCO1 [Example 284, 3-(4,5-dihydrofuran-3-yl)-5-(pyridin-3-yl)-1H-pyrazolo[3,4-c]pyridine]",10.6 nM
4,"NC1CCCN(c2cncc(-c3cc4c(-c5ccccc5F)n[nH]c4cn3)c2)CC1 (centres unmarked) [Example 166, 1-(5-(3-(2-fluorophenyl)-1H-pyrazolo[3,4-c]pyridin-5-yl)pyridin-3-yl)azepan-4-amine]",0.574 nM
5,"c1cncc(-c2cc3c(CNCC4CCNCC4)n[nH]c3cn2)c1 [Example 113, 1-(piperidin-4-yl)-N-((5-(pyridin-3-yl)-1H-pyrazolo[3,4-c]pyridin-3-yl)methyl)methanamine]",3200 nM
6,"Cn1cc(-c2cc3c(-c4cccc(N5CCC(O)CC5)n4)n[nH]c3cn2)cn1 [Example 294, 1-(6-(5-(1-methyl-1H-pyrazol-4-yl)-1H-pyrazolo[3,4-c]pyridin-3-yl)pyridin-2-yl)piperidin-4-ol]",0.168 nM
7,"CCn1cc(-c2cc3c(-c4cccc(N5CCNCC(CO)C5)n4)n[nH]c3cn2)cn1 (centres unmarked) [Example 511, (1-(6-(5-(1-ethyl-1H-pyrazol-4-yl)-1H-pyrazolo[3,4-c]pyridin-3-yl)pyridin-2-yl)-1,4-diazepan-6-yl)methanol]",0.016 nM
8,"CCn1cc(-c2cc3c(-c4cc(C5CC5)ccn4)n[nH]c3cn2)cn1 [Example 484, 3-(4-cyclopropylpyridin-2-yl)-5-(1-ethyl-1H-pyrazol-4-yl)-1H-pyrazolo[3,4-c]pyridine]",11.5 nM
9,"CCn1cc(-c2cc3c(-c4cccc(N5CC[C@@H](F)[C@H](N)C5)n4)n[nH]c3cn2)cn1 (relative stereo) [Example 462, trans-1-(6-(5-(1-ethyl-1H-pyrazol-4-yl)-1H-pyrazolo[3,4-c]pyridin-3-yl)pyridin-2-yl)-4-fluoropiperidin-3-amine]",0.55 nM
10,"CCc1cncc(-c2cc3c(-c4cccc(N5CCNCC5)n4)n[nH]c3cn2)c1 [Example 438, 5-(5-ethylpyridin-3-yl)-3-(6-(piperazin-1-yl)pyridin-2-yl)-1H-pyrazolo[3,4-c]pyridine]",0.004 nM
11,"O=C1OCCN1c1cc2c(-c3cccc(N4CCNCC4)n3)n[nH]c2cn1 [Example 415, 3-(3-(6-(piperazin-1-yl)pyridin-2-yl)-1H-pyrazolo[3,4-c]pyridin-5-yl)oxazolidin-2-one]",104 nM
12,"Cc1ccc(-c2n[nH]c3cnc(-c4cccnc4)cc23)nc1N1CC[C@H](O)C1 [Example 305, (S)-1-(3-methyl-6-(5-(pyridin-3-yl)-1H-pyrazolo[3,4-c]pyridin-3-yl)pyridin-2-yl)pyrrolidin-3-ol]",0.091 nM
13,"Cc1n[nH]c2cnc(-c3cncc(N4CCC[C@H](N)C4)n3)cc12 [Example 120, (S)-1-(6-(3-methyl-1H-pyrazolo[3,4-c]pyridin-5-yl)pyrazin-2-yl)piperidin-3-amine]",4.78 nM
14,"CCn1cc(-c2cc3c(-c4cc(C(F)(F)F)ccn4)n[nH]c3cn2)cn1 [Example 469, 5-(1-ethyl-1H-pyrazol-4-yl)-3-(4-(trifluoromethyl)pyridin-2-yl)-1H-pyrazolo[3,4-c]pyridine]",65.6 nM
15,"CCc1ccc(-c2n[nH]c3cnc(-c4cnn(CC)c4)cc23)nc1N1CCC[C@H](N)C1 [Example 477, (S)-1-(3-ethyl-6-(5-(1-ethyl-1H-pyrazol-4-yl)-1H-pyrazolo[3,4-c]pyridin-3-yl)pyridin-2-yl)piperidin-3-amine]",0.013 nM
16,"c1ccc(-c2n[nH]c3cnc(-c4cncs4)cc23)nc1 [Example 338, 5-(3-(pyridin-2-yl)-1H-pyrazolo[3,4-c]pyridin-5-yl)thiazole]",24.5 nM
17,"CCn1cc(-c2cc3c(-c4cccc(N5CCN(C(C)=O)CC5)n4)n[nH]c3cn2)cn1 [Example 472, 1-(4-(6-(5-(1-ethyl-1H-pyrazol-4-yl)-1H-pyrazolo[3,4-c]pyridin-3-yl)pyridin-2-yl)piperazin-1-yl)ethanone]",0.107 nM
18,"Cn1cc(-c2cc3c(-c4cccc(C5CCNCC5)n4)n[nH]c3cn2)cn1 [Example 247, 5-(1-methyl-1H-pyrazol-4-yl)-3-(6-(piperidin-4-yl)pyridin-2-yl)-1H-pyrazolo[3,4-c]pyridine]",0.224 nM
19,"Cc1ccc(-c2n[nH]c3cnc(-c4cccnc4)cc23)nc1F [Example 274, 3-(6-fluoro-5-methylpyridin-2-yl)-5-(pyridin-3-yl)-1H-pyrazolo[3,4-c]pyridine]",4.77 nM
